# Experimental data: US6816257B2, “Method and apparatus for detecting microparticles in fluid samples” (priority 1997, dated 2004)
# Test system: B. plicatilis rotifer
# Assay: Rotifer feeding rate toxicity test (fluosphere ingestion measured by laser fluorescence capillary device)
# Assay type: in vivo, Brachionus plicatilis
# Method: Water quality monitoring using rotifers was performed using a capillary tube with an internal diameter of 70 μm, a narrow band, 635 nm, 3 mW diode laser with a beam diameter of 40 μm was used. Interference filters were selected to transmit 12% at 670 nm (20 nm FWM), and 10^−6 at all other wavelengths.
# 1. A live B. plicatilis rotifer culture was obtained from Aqua-Farms, Fla. These rotifers were chosen because they are easy to raise, and the influence of toxic samples on their feeding, reproduction, and death rates have been studied extensively. The average concentration of rotifers in a 100 ml vial was counted using five 20 μl samples examined under a 50× microscope. […]
# 2. Two samples of 8 ml each were used to make the feeding rate measurements, a reference sample and test sample. These two vials were filled with the 500 rotifers/ml reference solution.
# 3. A […] diazanon solution was prepared using the rotifer medium solution, so as to maintain water quality parameters such as pH, O2, alkalinity, salinity, and temperature as constant as possible. A 20 μl amount of the diazanon solution was added to test sample.
# 4. After a 5 minute incubation, 20 μl of a 40×10^6 beads/ml solution of crimson fluospheres was added to both the reference and test samples. The time was noted as t=0.
# 5. Using two identical syringes connected with a luer union to a 100 μm piece of nylon tubing terminated with a 20 μm plankton filter, a 50 μl sample was extracted from the reference and test samples. In both cases, the organisms were filtered out from the bead solution.
# 6. The reference and test samples were successively passed through the test chamber using the syringe pump at a flow rate of 15 μl/min. […]
# Each data file was retrieved, using TOXANA™, a time series data analysis software program. […] An assessment of the signal baseline mean and variance values (where no peak is detected) was made for each file. […]
# The number of peaks with an intensity above Td were calculated for each file, as well as the average peak intensity, the average peak width, and the average peak area.
compound,measurement,setting,value
CCOP(=S)(OCC)Oc1cc(C)nc(C(C)C)n1 [diazanon],feeding rate reduced by a factor (vs control sample),"exposure to 1 ppm of diazanon, 500 rotifers/ml, FIG. 7B",30
same,ingestion rate per organism,"test sample containing 1 ppm of diazanon, 500 rotifers/ml, 5 minute incubation, FIG. 7B",10^−3 beads/sec
same,feeding rate,"test sample containing 1 ppm of diazanon, 600 rotifers/ml, FIG. 7C",less than 0.05 beads/min
